Assay results reported in patent publication US9809623B2, “α4β7 peptide monomer and dimer antagonists” (Protagonist Therapeutics, Inc., priority 2014, dated 2017).
Read-outs that look alike come from different tables or passages of the source. Numbered stars: 1 amine (or outer) side, 2 acyl side, 3 side chain; on linkers, the order of the positions; unused ones are H or OH. Bridge positions count the residues as written; N and C are the ends. Square brackets hold non-standard residues; d marks the D form. Peptide text beside a SMILES is read from it. I, II: the chains in the order shown. Phe(4-tBu) = CC(C)(C)c1ccc(C[C@H](N)C(=O)O)cc1; 2Nal = N[C@@H](Cc1ccc2ccccc2c1)C(=O)O; Diglycolyl = O=C(COCC(=O)[*:2])[*:1]; NMeR = CN[C@@H](CCCNC(=N)N)C(=O)O; Pen = CC(C)(S)[C@H](N)C(=O)O; βAla = NCCC(=O)O

Tests used:
[1] = Simulated Intestinal Fluid (SIF) Stability Assay; assay type: in vitro ADME, porcine; details: pig, pH 6.5, Table 3-B, > means experiment was stopped at that time and half life was not reached, read-out: Stabilty SIF t1/2
In short: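 Peptides (22 μM final) incubated at 37 °C in FASSIF (pH 6.5) with 1% porcine pancreatin; aliquots quenched at various times and analyzed by LC-MS/MS against internal standard. Half-life from first-order exponential decay fit of percent remaining.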

rh integrin α4β7 = target: T1, rh integrin α4β7 (Homo sapiens, UniProt P13612+P26010); assay: α4β7-MAdCAM Competition ELISA; assay type: binding; details: Table 3-B, Potency (α4β7); range classes; read-out: α4β7 ELISA IC50
T1 construct: purchased R&D Systems 5397-A30
In short: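 Recombinant human α4β7 was captured on nickel plates at 800 ng/well. Peptide in 3-fold serial dilution (final top 10 μM) competed with MAdCAM-1 (final 10 nM) for 1 h at room temperature in 50 mM Tris pH 7.6, 150 mM NaCl, 1 mM MnCl2 or MgCl2. Bound MAdCAM-1 was detected with anti-human IgG1-HRP/TMB at A450.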

α4β7 = α4β7 (Homo sapiens, UniProt P13612+P26010); assay: α4β7-MAdCAM Cell Adhesion Assay (RPMI 8866 human cells); assay type: cell-based; design: host or cells: RPMI 8866 human B lymphoblastoid cells; details: Table 3-B, Potency (α4β7); range classes; read-out: α4β7 cell (Hu) IC50
In short: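 Washed RPMI 8866 cells (200,000/well) in DMEM with 0.1% BSA, 10 mM HEPES pH 7, 1 mM MnCl2 adhered to rh MAdCAM-1/Fc-coated wells with serially diluted peptides, 30-45 min at 37 °C. After three washes, bound cells quantified by MTT, A570, cell-free background subtracted for dose response.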

[2] = simulated intestinal fluid (SIF) with 1% porcine pancreatin
[3] = simulated intestinal fluid (SIF) with porcine pancreatin

T1 sequence (P13612 34-977 limits assumed): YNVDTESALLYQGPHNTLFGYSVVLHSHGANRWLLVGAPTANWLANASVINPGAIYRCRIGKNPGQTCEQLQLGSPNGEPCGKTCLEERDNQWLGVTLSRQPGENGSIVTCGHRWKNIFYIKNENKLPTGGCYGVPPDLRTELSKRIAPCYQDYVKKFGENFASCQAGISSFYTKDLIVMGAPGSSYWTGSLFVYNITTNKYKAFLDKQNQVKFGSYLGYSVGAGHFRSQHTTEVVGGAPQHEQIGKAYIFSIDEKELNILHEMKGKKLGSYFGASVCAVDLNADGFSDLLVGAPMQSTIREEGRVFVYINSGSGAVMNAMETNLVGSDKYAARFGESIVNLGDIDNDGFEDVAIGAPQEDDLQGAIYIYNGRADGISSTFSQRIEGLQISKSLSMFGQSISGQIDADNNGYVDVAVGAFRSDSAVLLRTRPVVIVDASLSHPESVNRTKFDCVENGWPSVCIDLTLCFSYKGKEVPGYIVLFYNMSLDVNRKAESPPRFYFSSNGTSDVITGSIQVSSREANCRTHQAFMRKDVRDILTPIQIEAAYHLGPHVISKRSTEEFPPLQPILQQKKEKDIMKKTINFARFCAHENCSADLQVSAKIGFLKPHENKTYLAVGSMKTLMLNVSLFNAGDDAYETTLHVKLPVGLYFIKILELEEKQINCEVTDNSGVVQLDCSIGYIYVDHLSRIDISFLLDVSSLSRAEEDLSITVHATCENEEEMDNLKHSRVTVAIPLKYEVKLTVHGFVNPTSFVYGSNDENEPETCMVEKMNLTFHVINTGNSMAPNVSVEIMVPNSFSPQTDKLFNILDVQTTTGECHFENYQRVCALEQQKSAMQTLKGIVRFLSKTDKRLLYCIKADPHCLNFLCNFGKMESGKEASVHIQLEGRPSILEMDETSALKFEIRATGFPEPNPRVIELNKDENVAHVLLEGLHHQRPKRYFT
T1 sequence (P26010 20-723 limits assumed): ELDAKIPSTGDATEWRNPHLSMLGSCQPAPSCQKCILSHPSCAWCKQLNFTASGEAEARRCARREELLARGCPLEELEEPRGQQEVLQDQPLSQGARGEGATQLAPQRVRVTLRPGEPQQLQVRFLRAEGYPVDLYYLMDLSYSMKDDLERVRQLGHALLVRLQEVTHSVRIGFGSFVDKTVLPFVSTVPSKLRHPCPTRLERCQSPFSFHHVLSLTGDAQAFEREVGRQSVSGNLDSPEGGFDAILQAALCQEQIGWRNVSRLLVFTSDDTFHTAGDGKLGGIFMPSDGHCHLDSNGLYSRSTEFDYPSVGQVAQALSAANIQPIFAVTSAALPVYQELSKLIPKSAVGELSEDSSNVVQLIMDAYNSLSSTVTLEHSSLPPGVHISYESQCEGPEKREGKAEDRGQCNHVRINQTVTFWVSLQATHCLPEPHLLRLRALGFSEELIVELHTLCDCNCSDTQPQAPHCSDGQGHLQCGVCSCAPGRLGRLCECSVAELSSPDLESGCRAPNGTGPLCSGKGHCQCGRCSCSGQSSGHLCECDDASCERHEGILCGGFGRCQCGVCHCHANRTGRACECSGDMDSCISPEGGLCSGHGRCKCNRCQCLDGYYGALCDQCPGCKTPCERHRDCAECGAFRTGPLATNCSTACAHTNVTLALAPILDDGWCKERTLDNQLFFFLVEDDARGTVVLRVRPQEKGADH
Sequence of α4β7 (P13612 34-1032): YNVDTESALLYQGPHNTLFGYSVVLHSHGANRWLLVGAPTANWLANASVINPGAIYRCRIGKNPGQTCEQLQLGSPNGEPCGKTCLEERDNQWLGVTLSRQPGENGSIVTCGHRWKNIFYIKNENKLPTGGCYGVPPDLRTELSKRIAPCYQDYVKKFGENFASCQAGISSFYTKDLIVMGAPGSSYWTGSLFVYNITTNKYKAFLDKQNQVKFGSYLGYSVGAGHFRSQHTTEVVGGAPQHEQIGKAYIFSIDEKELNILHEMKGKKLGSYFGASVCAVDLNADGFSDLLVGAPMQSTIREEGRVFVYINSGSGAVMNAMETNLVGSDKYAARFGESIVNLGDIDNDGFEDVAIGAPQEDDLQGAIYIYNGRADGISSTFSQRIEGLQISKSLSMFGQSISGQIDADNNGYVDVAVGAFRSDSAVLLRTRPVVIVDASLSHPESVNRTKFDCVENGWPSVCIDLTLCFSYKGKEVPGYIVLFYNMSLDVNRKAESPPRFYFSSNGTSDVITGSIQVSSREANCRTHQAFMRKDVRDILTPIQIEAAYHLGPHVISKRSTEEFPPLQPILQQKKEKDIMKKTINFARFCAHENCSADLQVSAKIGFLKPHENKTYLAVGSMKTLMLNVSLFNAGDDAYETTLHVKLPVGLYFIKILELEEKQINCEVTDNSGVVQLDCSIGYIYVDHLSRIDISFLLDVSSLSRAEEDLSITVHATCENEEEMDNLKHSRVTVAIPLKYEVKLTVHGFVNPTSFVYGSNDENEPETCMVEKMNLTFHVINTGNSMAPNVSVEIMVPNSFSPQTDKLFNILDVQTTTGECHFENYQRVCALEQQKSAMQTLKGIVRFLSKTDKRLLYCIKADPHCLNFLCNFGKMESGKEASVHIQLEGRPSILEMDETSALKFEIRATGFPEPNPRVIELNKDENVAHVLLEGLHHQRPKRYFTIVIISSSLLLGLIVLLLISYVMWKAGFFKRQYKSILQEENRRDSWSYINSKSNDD
Sequence of α4β7 (P26010 20-798): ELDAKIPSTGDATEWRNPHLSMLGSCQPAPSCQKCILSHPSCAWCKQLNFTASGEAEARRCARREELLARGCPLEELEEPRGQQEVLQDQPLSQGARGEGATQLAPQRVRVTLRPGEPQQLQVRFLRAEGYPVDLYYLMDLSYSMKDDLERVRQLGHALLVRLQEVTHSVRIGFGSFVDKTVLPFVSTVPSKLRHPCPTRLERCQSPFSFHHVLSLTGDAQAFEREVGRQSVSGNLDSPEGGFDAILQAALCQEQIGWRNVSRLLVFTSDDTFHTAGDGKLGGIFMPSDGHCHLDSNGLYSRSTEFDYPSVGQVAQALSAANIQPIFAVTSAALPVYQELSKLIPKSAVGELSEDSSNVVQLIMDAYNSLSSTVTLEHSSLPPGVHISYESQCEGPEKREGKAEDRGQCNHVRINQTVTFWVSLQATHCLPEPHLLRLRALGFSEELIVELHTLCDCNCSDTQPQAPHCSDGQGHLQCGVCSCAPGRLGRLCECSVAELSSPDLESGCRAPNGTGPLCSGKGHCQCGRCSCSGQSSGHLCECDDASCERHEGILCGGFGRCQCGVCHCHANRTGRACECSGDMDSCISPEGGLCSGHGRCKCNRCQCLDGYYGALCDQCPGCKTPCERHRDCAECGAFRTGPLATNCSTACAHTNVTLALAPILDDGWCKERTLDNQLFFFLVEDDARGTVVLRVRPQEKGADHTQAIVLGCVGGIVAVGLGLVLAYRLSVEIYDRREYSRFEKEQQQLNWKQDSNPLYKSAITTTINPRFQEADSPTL

CC(=O)N[C@@H]1C(=O)N(C)[C@@H](CCCNC(=N)N)C(=O)N[C@@H](CO)C(=O)N[C@@H](CC(=O)O)C(=O)N[C@@H]([C@@H](C)O)C(=O)N[C@@H](CC(C)C)C(=O)N[C@H](C(=O)N[C@@H](Cc2ccc3ccccc3c2)C(=O)N[C@H](CCC(=O)O)C(=O)N[C@H](CCCCNC(=O)COCC(=O)NCCCC[C@@H](NC(=O)[C@@H](CCC(=O)O)NC(=O)[C@H](Cc2ccc3ccccc3c2)NC(=O)[C@H]2NC(=O)[C@H](CC(C)C)NC(=O)[C@H]([C@@H](C)O)NC(=O)[C@H](CC(=O)O)NC(=O)[C@H](CO)NC(=O)[C@H](CCCNC(=N)N)N(C)C(=O)[C@@H](NC(C)=O)C(C)(C)SSC2(C)C)C(N)=O)C(N)=O)C(C)(C)SSC1(C)C [compound 29] (I: Ac-[Pen][NMeR]SDTL[Pen][2Nal][dE][dK]-NH2 / II: Ac-[Pen][NMeR]SDTL[Pen][2Nal][dE][dK]-NH2; disulfide I:1-I:7, II:1-II:7; linker I:10-II:10 via Diglycolyl)
half-life at 22 μM [1, 2]: > 3 h
IC50 (rh integrin α4β7): < 10 nM
IC50 (α4β7): 10 to 25 nM

CC(C)C[C@@H]1NC(=O)[C@H]([C@@H](C)O)NC(=O)[C@H](CC(=O)O)NC(=O)[C@H](CO)NC(=O)[C@H](CCCNC(=N)N)N(C)C(=O)[C@@H](NC(=O)CCN)C(C)(C)SSC(C)(C)[C@@H](C(=O)N[C@@H](Cc2c[nH]c3ccccc23)C(=O)N[C@@H](CCC(=O)O)C(N)=O)NC1=O [compound 52] (H-[βAla][Pen][NMeR]SDTL[Pen]WE-NH2; disulfide 2-8)
half-life at 22 μM [1, 3]: 1.95 h
IC50 (rh integrin α4β7): 10 to 25 nM
IC50 (α4β7): 100 to 500 nM

CC(C)C[C@@H]1NC(=O)[C@H]([C@@H](C)O)NC(=O)[C@H](CC(=O)O)NC(=O)[C@H](CO)NC(=O)[C@H](CCCNC(=N)N)N(C)C(=O)[C@@H](NC(=O)CCN)C(C)(C)SSC(C)(C)[C@@H](C(=O)N[C@@H](Cc2c[nH]c3ccccc23)C(=O)N[C@H](CCC(=O)O)C(N)=O)NC1=O [compound 53] (H-[βAla][Pen][NMeR]SDTL[Pen]W[dE]-NH2; disulfide 2-8)
half-life at 22 μM [1, 3]: > 3 h
IC50 (rh integrin α4β7): 10 to 25 nM

CC(=O)N[C@@H]1C(=O)N(C)[C@@H](CCCNC(=N)N)C(=O)N[C@@H](CO)C(=O)N[C@@H](CC(=O)O)C(=O)N[C@@H]([C@@H](C)O)C(=O)N[C@@H](CC(C)C)C(=O)N[C@H](C(=O)N[C@@H](Cc2ccc(C(C)(C)C)cc2)C(=O)O)C(C)(C)SSC1(C)C [compound 151] (Ac-[Pen][NMeR]SDTL[Pen][Phe(4-tBu)]-OH; disulfide 1-7)
half-life at 22 μM [1, 2]: 3.12 h
IC50 (rh integrin α4β7): 10 to 25 nM
IC50 (α4β7): 50 to 100 nM
